This is an account of results in patent publication US10512656B2, “Compositions and methods for the treatment of lysosomal storage disorders and disorders characterized by lysosomal dysfunction” (Baylor College of Medicine, priority 2016, dated 2019).

Structures are written as SMILES.

Experiment [1] concerns Cln3^Δex7-8 mice. The experiment in a line: Corpus callosum volume by MRI. It counts as in vivo, mouse. The conditions noted are these: 12-month-old Cln3^Δex7-8 mice, trehalose; untreated 12.96±0.43 mm^3. As for the experimental part:
Mice were transcardially perfused before imaging. The head was removed and then the skin, muscle, ears, nose tip and lower jaw were removed to expose the skull. The head was fixed overnight in 4% paraformaldehyde at 4° C. The head was then transferred to 40 mLs of 0.01% sodium azide in PBS and rocked for 7 days at 4° C. The head was transferred to a solution of 5 mM gadopentetate dimeglumine (Bayer HealthCare Pharmaceuticals Inc., Wayne, N.J.) and 0.01% sodium azide in PBS and rocked for 25-35 days at 4° C. Incubation with gadopentetate dimeglumine improved the signal-to-noise ratio. Before imaging, the head was equilibrated to room temperature for 6-8 h.
A total of 48 scans per mouse were acquired on a 9.4 T Bruker Avance Biospec Spectrometer, 21-cm bore horizontal scanner with 35 mm volume resonator (Bruker BioSpin, Billerica, Mass.) with Paravision 5.0 software (Bruker Biospin, Billerica, Mass.). The three-dimensional DTI scan parameters are as follows: spin echo, b-value=0 and 1,000 s/mm^2, 20 diffusion directions with one non-diffusion weighted image, TR=500 ms, TE=14.8 ms, FOV=1.7×1.2×2.4 cm or 2.0×1.4×3.2 cm, matrix=128×96×96, NEX=1, δ=3 ms, Δ=7 ms. The acquisition time was ˜15 h.
The MRI images were first processed on DTI studio to extrapolate the fractional anisotropy. […]

Experiment [2] deals with Cln3^Δex7-8 mice. The experiment in a line: Hot plate test (pain sensitivity). Format: in vivo, mouse. The conditions noted are these: six-month-old Cln3^Δex7-8 mice, 50° C. surface. The source says:
FIG. 1. Amelioration of disease pathology in JNCL mice fed with trehalose. […] Treated (Tre) Cln3^Δex7-8 mice: n=13. Untreated (UT) Cln3^4ex7-8 mice: n=12. (b) Weight of brains from 12-month-old WT and Cln3^Δex7-8 mice with or without trehalose treatment. All groups of mice, n=4 or 5. (c) Fractional anisotropy of brains from 12-month-old WT and Cln3^Δex7-8 mice with or without trehalose treatment. Left panel: representative coronal images of the four groups of brains; corpus callosa are indicated by the yellow arrowhead. Right panel: quantification of callosal volume. All groups of mice, n=3 or 4. Scale bar, […]. Three-dimensional reconstructions of the corpus callosum in mice from treated and control groups are reported in Supplementary Movies 1-4. (d) In the hot plate test, Cln3^Δex7-8 mice respond slower when placed on a 50° C. heated metal surface compared with wild-type (WT) littermates, indicating reduced pain sensitivity. Trehalose (Tre) treatment rescued this phenotype in Cln3^Δex7-8 mice. All groups of mice, n=14-19. Data represent means±s.e.m. *P<0.05, **P<0.01, ***P<0.001.
Background: In hot-plate and tail-flick tests a longer latency is read as antinociception.

Experiment [3] concerns the target T1, mTORC1 (Mus musculus, UniProt Q9JLN9).
T1 construct: 100 mM) for 24 h or left untreated; endogenous in cells; host or cells: wild-type and Tsc2-/- mouse embryonic fibroblasts
The experiment in a line: Immunoblot of mTORC1 substrates in WT and Tsc2-/- MEFs. It counts as cell-based. As to conditions: Tsc2-/- and control MEFs, trehalose 100 mM 24 h. The method, then:
(b) Quantification of TFEB subcellular localization (C, cytoplasmic; N, nuclear) after 24 h of trehalose treatment (Tre) or in untreated cells (UT). Scale bars in a, b is 40 μm. (c) Immunoblot analyses show expression levels of substrates downstream of mTORC1. Wild-type (WT) and TSC2 null MEF cells were treated with trehalose (Tre; 100 mM) for 24 h or left untreated. As controls, cells were treated with Torin 1 (300 nM) or rapamycin (300 nM) for 2 h before extracting the lysates. Phospho- and total S6K1 (P-S6K1 and T-S6K1), phospho- and total S6 (P-S6 and T-S6) and phospho- and total 4E-BP1 (P-4E-BP1 and T-4E-BP1) were detected as readouts of mTORC1 activity. […]
Brain tissue and cultured cells were collected and lysed in RIPA buffer (50 mM Tris-HCl, ph 7.4, 1% NP40, 0.5% Na-deoxycholate, 0.1% SDS, 150 mM NaCl, 2 mM EDTA and 50 mM NaF) including a cocktail of protease (Roche) and phosphatase (SIGMA) inhibitors. Protein concentrations were measured with the bicinchoninic acid protein assay kit (Pierce, Rockford, Ill.), using bovine serum albumin as standard. […] Western blot images were acquired by LAS 4000 (GE Healthcare) and quantified using ImageJ. […]
A general note: A western blot detects proteins with antibodies after separation by electrophoresis.

On to `OC[C@H]1O[C@H](O[C@H]2O[C@H](CO)[C@@H](O)[C@H](O)[C@H]2O)[C@H](O)[C@@H](O)[C@@H]1O` [trehalose, a-D-glucopyranosyl a-D-glucopyranoside], for which the corpus callosum volume in experiment [1] is reported as 15.02±0.33 mm^3. In experiment [2], the “pain sensitivity in hot plate assay” value is given as “fully restored”. Moreover, the mTORC1 signalling entry in experiment [3] is “does not alter mTORC1 signalling”.
